The record followed here is patent publication US20100305124A1, “Acylated Aminopyridine and Aminopyridazine Insecticides” (BAYER CROPSCIENCE AG, priority 2009, published 2010).

For the assay, the system named is green peach aphid (Myzus persicae). Briefly: Myzus test (MYZUPE), sprayed aubergine plants. The class given is in vivo. Conditions: application rate of 500 ppm, spray on aubergine plants, read-out: effect in % (aphids killed). How it is done: Solvent: 3 parts by weight of dimethylformamide Emulsifier: 1 part by weight of polyoxyethylenealkyl phenyl ether
An appropriate preparation of active ingredient is prepared by mixing 1 part by weight of active ingredient with the stated amount of solvent and emulsifier and diluting the concentrate with water to the desired concentration.
Aubergine plants (Solanum melongena) infested by all stages of the green peach aphid (Myzus persicae) are sprayed with a preparation of active ingredient at the desired concentration.
After the desired time, the effect in % is determined; here, 100% means that all of the aphids have been killed. Conversely, 0% means that no aphids have been killed.
Take `CN(C(=O)c1ccc(Oc2cccc(C(F)(F)F)c2)nc1)c1cccnc1` [I-100]: the pest or weed control at 500 ppm was at least 80%.

Regarding `CN(C(=O)c1ccc(Oc2ccc(S(C)(=O)=O)cc2)nc1)c1cccnc1` [I-101], the pest or weed control at 500 ppm was at least 80%. Under `Cc1ccc(Oc2ccc(C(=O)N(C)c3cccnc3)cn2)cc1` [I-102] stands at least 80%; under `Cc1ccc(Oc2ccc(C(=O)Nc3cccnc3)cc2)cn1` [I-103], at least 80%.

On to `Cc1cc(C)nc(Sc2ccc(C(=O)N(C)c3cccnc3)cn2)n1` [I-104], for which the pest or weed control at 500 ppm was at least 80%. Under `Cc1ccc(Sc2ccc(C(=O)N(C)c3cccnc3)cn2)cc1` [I-105] stands at least 80%; under `COc1ccc(Sc2ccc(C(=O)N(C)c3cccnc3)cn2)cc1` [I-106], at least 80%.

On to `CN(C(=O)c1ccc(Sc2ccc(Cl)cc2)nc1)c1cccnc1` [I-107], for which the pest or weed control at 500 ppm is at least 80%. Under `CSc1ccc(C(=O)Nc2cccnc2)cn1` [I-108] stands at least 80%. Under `O=C(Nc1cccnc1)c1ccc(Oc2ccc(C(F)(F)F)cc2)nc1` [I-109] stands at least 80%; under `CSc1ccc(C(=O)N(C)c2cccnc2)cn1` [I-110], at least 80%; under `CN(C(=O)c1ccc(Oc2cccc(C#N)c2)nc1)c1cccnc1` [I-112], at least 80%.

On to `CN(C(=O)c1ccc(Oc2ccc(Cl)cc2C#N)nc1)c1cccnc1` [I-113], for which the pest or weed control at 500 ppm was at least 80%.

As for `CN(C(=O)c1ccc(Oc2ccc(Cl)cc2Cl)nc1)c1cccnc1` [I-114], the pest or weed control at 500 ppm is at least 80%. Turning to `CN(C(=O)c1ccc(Oc2ccc(Cl)c(Cl)c2)nc1)c1cccnc1` [I-115], the pest or weed control at 500 ppm is at least 80%.

As for `CN(C(=O)c1ccc(Oc2ccc(OC(F)(F)F)cc2)nc1)c1cccnc1` [I-116], the pest or weed control at 500 ppm was at least 80%. The value for `CN(C(=O)c1ccc(Oc2ccc(C(F)(F)F)cc2)nc1)c1cccnc1` [I-117] was at least 80%. Under `CN(C(=O)c1ccc(Sc2ccc(C(F)(F)F)cc2)nc1)c1cccnc1` [I-118] stands at least 80%.

Take `CN(C(=O)c1ccc(Sc2ccc(C(F)(F)F)cn2)nc1)c1cccnc1` [I-119]: the pest or weed control at 500 ppm is at least 80%. The value for `CN(C(=O)c1ccc(Oc2cc(Cl)cc(Cl)c2)nc1)c1cccnc1` [I-123] was at least 80%; that for `CN(C(=O)c1ccc(Oc2cc(C(F)(F)F)cc(C(F)(F)F)c2)nc1)c1cccnc1` [I-124] was at least 80%; that for `CN(C(=O)c1ccc(Oc2ccc(-n3cncn3)cc2)nc1)c1cccnc1` [I-128] was at least 80%. Under `CC(C)S(=O)(=O)c1ccc(Oc2ccc(C(=O)N(C)c3cccnc3)cn2)cc1` [I-130] stands at least 80%; under `COc1ccc(Oc2ccc(Oc3ccc(C(=O)N(C)c4cccnc4)cn3)cc2)cc1` [I-131], at least 80%; under `CCN(C(=O)c1ccc(Oc2ccc(OC(F)(F)F)cc2)nc1)c1cccnc1` [I-132], at least 80%.

Consider `CCCN(C(=O)c1ccc(Oc2ccc(OC(F)(F)F)cc2)nc1)c1cccnc1` [I-133], for which the pest or weed control at 500 ppm was at least 80%. Under `C=CCN(C(=O)c1ccc(Oc2ccc(OC(F)(F)F)cc2)nc1)c1cccnc1` [I-134] stands at least 80%; under `C#CCN(C(=O)c1ccc(Oc2ccc(OC(F)(F)F)cc2)nc1)c1cccnc1` [I-135], at least 80%. Regarding `CN(C(=O)c1ccc(Sc2ncccn2)nc1)c1cccnc1` [I-136], the pest or weed control at 500 ppm is at least 80%.

As for `Cc1ccnc(Sc2ccc(C(=O)N(C)c3cccnc3)cn2)n1` [I-137], the pest or weed control at 500 ppm is at least 80%. Under `Cc1nc(Sc2ccc(C(=O)N(C)c3cccnc3)cn2)nc(C)c1C` [I-138] stands at least 80%; under `CN(C(=O)c1ccc(Oc2ccc3cccnc3c2)nc1)c1cccnc1` [I-141], at least 80%; under `CC(C(=O)c1ccc(Oc2cccc3ncccc23)nc1)c1cccnc1` (stereo not shown) [I-142], at least 80%. Regarding `Cc1cc(C)nc(Oc2ccc(C(=O)N(C)c3cccnc3)cn2)n1` [I-144], the pest or weed control at 500 ppm is at least 80%. Under `COc1cc(OC)nc(Oc2ccc(C(=O)N(C)c3cccnc3)cn2)n1` [I-145] stands at least 80%; under `CN(C(=O)c1cnc(Oc2ccc(C(F)(F)F)cc2)c(Cl)c1)c1cccnc1` [I-146], at least 80%. Under `CN(C(=O)c1cnc(Oc2ccc(OC(F)(F)F)cc2)c(Cl)c1)c1cccnc1` [I-147] stands at least 80%; under `CN(C(=O)c1cnc(Oc2ccc(S(C)(=O)=O)cc2)c(Cl)c1)c1cccnc1` [I-148], at least 80%; under `CN(C(=O)c1cnc(Oc2ccc(C#N)cc2)c(Cl)c1)c1cccnc1` [I-149], at least 80%. Under `Cc1cc(C)nc(Sc2ncc(C(=O)N(C)c3cccnc3)cc2Cl)n1` [I-152] stands at least 80%; under `CCN(C(=O)c1ccc(Oc2ccc(S(C)(=O)=O)cc2)nc1)c1cccnc1` [I-154], at least 80%. For `COc1ccc(C(=O)N(C)c2cccnc2)cn1` [I-155], the pest or weed control at 500 ppm is at least 80%. Regarding `CCOc1ccc(C(=O)N(C)c2cccnc2)cn1` [I-156], the pest or weed control at 500 ppm was at least 80%. The value for `CCN(C(=O)c1ccc(Oc2ccc(C(F)(F)F)cc2)nc1)c1cccnc1` [I-157] was at least 80%; that for `Cc1cc(C)nc(Sc2ccc(C(=O)Nc3cccnc3)cn2)n1` [I-159] was at least 80%; that for `CCN(C(=O)c1ccc(Oc2ccc(Cl)cc2)nc1)c1cccnc1` [I-161] was at least 80%. Under `CCN(C(=O)c1ccc(Oc2ccc([N+](=O)[O-])cc2)nc1)c1cccnc1` [I-163] stands at least 80%; under `N#Cc1ccc(Oc2ccc(C(=O)Nc3cccnc3)cn2)cc1` [I-164], at least 80%; under `CCN(C(=O)c1ccc(Oc2ccc(C#N)cc2)nc1)c1cccnc1` [I-165], at least 80%. The value for `Cc1ccnc(Sc2ncc(C(=O)N(C)c3cccnc3)cc2Cl)n1` [I-166] was at least 80%; that for `Cc1nc(Sc2ncc(C(=O)N(C)c3cccnc3)cc2Cl)nc(C)c1C` [I-167] was at least 80%; that for `COc1cc(OC)nc(Oc2ccc(C(=O)Nc3cccnc3)cn2)n1` [I-168] was at least 80%. As for `CCN(C(=O)c1ccc(Oc2nc(OC)cc(OC)n2)nc1)c1cccnc1` [I-169], the pest or weed control at 500 ppm is at least 80%.

Take `COc1cc(OC)nc(Oc2ccc(C(=O)Nc3cccnc3)cc2)n1` [I-170]: the pest or weed control at 500 ppm was at least 80%. The value for `COc1cc(OC)nc(Oc2ccc(C(=O)N(C)c3cccnc3)cc2)n1` [I-171] was at least 80%.

With `CCN(C(=O)c1ccc(Oc2nc(OC)cc(OC)n2)cc1)c1cccnc1` [I-172], the pest or weed control at 500 ppm was at least 80%. Under `COc1cc(OC)nc(Sc2ccc(C(=O)Nc3cccnc3)cn2)n1` [I-173] stands at least 80%; under `COc1cc(OC)nc(Sc2ccc(C(=O)N(C)c3cccnc3)cn2)n1` [I-174], at least 80%.

Regarding `CCN(C(=O)c1ccc(Sc2nc(OC)cc(OC)n2)nc1)c1cccnc1` [I-175], the pest or weed control at 500 ppm is at least 80%. For `COc1cc(OC)nc(Sc2ccc(C(=O)Nc3cccnc3)cc2)n1` [I-176], the pest or weed control at 500 ppm was at least 80%. Under `COc1cc(OC)nc(Sc2ccc(C(=O)N(C)c3cccnc3)cc2)n1` [I-177] stands at least 80%; under `CCN(C(=O)c1ccc(Sc2nc(OC)cc(OC)n2)cc1)c1cccnc1` [I-178], at least 80%; under `Cc1cc(C)nc(Sc2ccc(C(=O)Nc3cccnc3)cc2)n1` [I-179], at least 80%.

Regarding `CCN(C(=O)c1ccc(Sc2nc(C)cc(C)n2)cc1)c1cccnc1` [I-180], the pest or weed control at 500 ppm is at least 80%. Under `Cc1cc(C)nc(Oc2ccc(C(=O)Nc3cccnc3)cc2)n1` [I-181] stands at least 80%; under `Cc1cc(C)nc(Oc2ccc(C(=O)N(C)c3cccnc3)cc2)n1` [I-182], at least 80%. Under `CCN(C(=O)c1ccc(Oc2nc(C)cc(C)n2)cc1)c1cccnc1` [I-183] stands at least 80%; under `CN(C)c1ccc(C(=O)Nc2cccnc2)cn1` [I-184], at least 80%. Under `CN(C(=O)c1ccc(Oc2cnc(C(F)(F)F)nc2)nc1)c1cccnc1` [I-185] stands at least 80%; under `CCN(C(=O)c1ccc(Oc2nc(C)cc(C)n2)nc1)c1cccnc1` [I-187], at least 80%; under `COc1nc(OC)nc(Sc2ccc(C(=O)Nc3cccnc3)cc2)n1` [I-188], at least 80%. As to `COc1nc(OC)nc(Sc2ccc(C(=O)N(C)c3cccnc3)cc2)n1` [I-189], the pest or weed control at 500 ppm is at least 80%. Under `CCN(C(=O)c1ccc(Sc2nc(OC)nc(OC)n2)cc1)c1cccnc1` [I-190] stands at least 80%. With `CCN(C(=O)c1ccc(Cl)nc1)c1cccnc1` [I-191], the pest or weed control at 500 ppm was at least 80%. The value for `CCN(C(=O)c1ccc(Sc2nc(C)cc(C)n2)nc1)c1cccnc1` [I-192] was at least 80%; that for `CCN(C(=O)c1ccc(Oc2ccc(C)cn2)nc1)c1cccnc1` [I-193] was at least 80%.

As to `O=C(Nc1cccnc1)c1ccc(Sc2ncccn2)nc1` [I-194], the pest or weed control at 500 ppm is at least 80%. Under `Cc1ccnc(Sc2ccc(C(=O)Nc3cccnc3)cn2)n1` [I-195] stands at least 80%. The value for `CCN(C(=O)c1ccc(Sc2ncccn2)nc1)c1cccnc1` [I-196] was at least 80%.
